# Results published in patent US20040048834A1, “Antitumoral compounds” (priority 2000, published 2004).
# pIC50: −log10 of the molar value. Counter-ions that a name gives are not always drawn. Like-named read-outs stand apart in the source and are kept apart here.
# Assays:
# Type in all cases: cell-based
# HT29 = assay: Cytotoxicity of spisulosine analogs, HT29 (after Berjeron et al)
# A549 = assay: Cytotoxicity of spisulosine analogs, A549 (after Berjeron et al)
# P388 = assay: Cytotoxicity of spisulosine analogs, P388 (after Berjeron et al)
# DU145 = assay: Cytotoxicity of spisulosine analogs, DU145 (after Berjeron et al)
# MEL28 = assay: Cytotoxicity of spisulosine analogs, MEL28 (after Berjeron et al)
# [1] = HT29, methodology after Berjeron et al, NA=not active, read-out: Cytotoxicity IC50 HT29
# [2] = A549, methodology after Berjeron et al, NA=not active, read-out: Cytotoxicity IC50 A549
# [3] = P388, methodology after Berjeron et al, NA=not active, read-out: Cytotoxicity IC50 P388
# [4] = DU145, methodology after Berjeron et al, NA=not active, read-out: Cytotoxicity IC50 DU145
# [5] = MEL28, methodology after Berjeron et al, NA=not active, read-out: Cytotoxicity IC50 MEL28
# [6] = Homo sapiens, HT-29, HT29, methodology after Berjeron et al, NA=not active, read-out: Cytotoxicity IC50 HT29
# [7] = Homo sapiens, A549, A549, methodology after Berjeron et al, NA=not active, read-out: Cytotoxicity IC50 A549
# [8] = Mus musculus, P388, P388, methodology after Berjeron et al, NA=not active, read-out: Cytotoxicity IC50 P388
# [9] = Homo sapiens, DU-145, DU145, methodology after Berjeron et al, NA=not active, read-out: Cytotoxicity IC50 DU145
# [10] = Homo sapiens, SK-MEL-28, MEL28, methodology after Berjeron et al, NA=not active, read-out: Cytotoxicity IC50 MEL28
# [11] = HT29, methodology after Berjeron et al, NA=not active, hydrochloride, read-out: Cytotoxicity IC50 HT29
# [12] = A549, methodology after Berjeron et al, NA=not active, hydrochloride, read-out: Cytotoxicity IC50 A549
smiles,measurement,setting,value
CCCCCCCCCCCCCCC[C@@H](N)[C@H](C)N,pIC50,HT29; [1],5.85
same,pIC50,A549; [2],5.85
CCCCCCCCCCCCCCC[C@@H](OC(=O)C(F)(F)F)[C@H](C)N,pIC50,HT29; [1],7.69
same,pIC50,A549; [2],7.69
CCCCCCCCCCCCCCC[C@H](N)[C@H](C)N,pIC50,HT29; [1],6.55
same,pIC50,A549; [2],6.55
CCCCCCCCCCCCCCC[C@@H](O)[C@H](C)N(C)C,pIC50,HT29; [1],6.50
same,pIC50,P388; [3],6.50
same,pIC50,A549; [2],6.50
same,pIC50,DU145; [4],6.50
same,pIC50,MEL28; [5],6.50
CCCCCCCCCCCCCCC[C@@H](O)[C@H](C)NC,pIC50,HT29; [1],6.48
same,pIC50,P388; [3],6.48
same,pIC50,A549; [2],6.48
same,pIC50,DU145; [4],6.48
same,pIC50,MEL28; [5],6.48
CCCCCCCCCCCCCCC[C@@H](O)[C@H](C)NS(C)(=O)=O,pIC50,HT29; [1],7.56
same,pIC50,A549; [2],7.56
CCCCCCCCCCCCCCCC[C@@H](O)[C@H](C)NS(C)(=O)=O,pIC50,HT29; [1],6.58
same,pIC50,A549; [2],6.58
CCCCCCCCCCCCCCCC(=NO)C(C)N (stereo not drawn),pIC50,HT29; [1],6.47
same,pIC50,P388; [3],6.47
same,pIC50,A549; [2],6.47
same,pIC50,DU145; [4],6.47
same,pIC50,MEL28; [5],6.47
CCCCCCCCCCCCCCCC(=O)[C@@H](C)N,pIC50,HT29; [1],6.81
same,pIC50,P388; [3],6.81
same,pIC50,A549; [2],6.81
same,pIC50,DU145; [4],6.81
same,pIC50,MEL28; [5],6.50
CCCCCCCCCCCCC/C=C/[C@@H](O)[C@@H](N)CF,pIC50,HT29; [6],7.48
same,pIC50,A549; [7],7.48
"CCCCCCCCCCCCCCC[C@H](O)[C@@H](C)N [(2R,3S)-2-Amino-3-octadecanol]",pIC50,HT29; [6],6.46
same,pIC50,P388; [8],6.46
same,pIC50,A549; [7],6.46
same,pIC50,DU145; [9],6.46
same,pIC50,MEL28; [10],6.46
"CCCCCCCCCCCCCCC[C@@H](OC)[C@H](C)N [(2S,3R)-2-Amino-3-(methoxy)-octadecane]",pIC50,HT29; [6],5.78
same,pIC50,A549; [7],5.78
"CCCCCCCCCCCCCCCCCCC[C@@H](O)[C@H](C)N [(2S,3R)-2-Amino-3-docosanol]",pIC50,HT29; [6],5.84
same,pIC50,P388; [8],6.53
same,pIC50,DU145; [9],5.84
"CCCCCCCCCCCC[C@@H](O)[C@H](C)N [(2S,3R)-2-Amino-3-pentadecanol]",pIC50,HT29; [6],6.39
same,pIC50,P388; [8],6.39
same,pIC50,A549; [7],6.39
same,pIC50,DU145; [9],6.39
same,pIC50,MEL28; [10],5.69
"CCCCCCCCCCC[C@@H](O)[C@H](C)N [(2S,3R)-2-Amino-3-tetradecanol]",pIC50,HT29; [6],6.36
same,pIC50,P388; [8],6.36
same,pIC50,A549; [7],5.66
same,pIC50,DU145; [9],5.66
same,pIC50,MEL28; [10],5.66
"CCCCCCCCCCCCCCCCCCCC[C@@H](O)[C@H](C)N [(2S,3R)-2-Amino-3-tricosanol]",pIC50,HT29; [6],5.55
same,pIC50,P388; [8],5.85
same,pIC50,DU145; [9],5.55
"CCCCCCCCCCCCCCC[C@@H](OP(=O)(OC)OC)[C@H](C)N [(2S,3R)-2-Amino-O-(dimethylphosphate)-3-octadecanol]",pIC50,"HT29; Homo sapiens, HT-29, read-out: Cytotoxicity IC50 HT29",5.90
same,pIC50,"P388; Mus musculus, P388, read-out: Cytotoxicity IC50 P388",5.90
same,pIC50,"A549; Homo sapiens, A549, read-out: Cytotoxicity IC50 A549",5.90
same,pIC50,"DU145; Homo sapiens, DU-145, read-out: Cytotoxicity IC50 DU145",5.90
same,pIC50,"MEL28; Homo sapiens, SK-MEL-28, read-out: Cytotoxicity IC50 MEL28",5.90
"CCCCCCCCCCCCCCC[C@H](Cl)[C@H](C)N [(2S,3S)-2-Amino-3-chloro-octadecane]",pIC50,HT29; [6],6.48
same,pIC50,P388; [8],6.48
same,pIC50,A549; [7],6.48
same,pIC50,DU145; [9],6.48
same,pIC50,MEL28; [10],6.48
"CCCCCCCCCCCCCCC[C@H](O)[C@H](C)N [(2S,3S)-2-Amino-3-octadecanol]",pIC50,HT29; [6],6.46
same,pIC50,P388; [8],6.46
same,pIC50,A549; [7],6.46
same,pIC50,DU145; [9],6.46
same,pIC50,MEL28; [10],6.46
"CCCCCCCCCCCCCCC[C@@H](O)[C@H](C)N [drawing 36, spisulosine-285, reference compound]",pIC50,HT29; [1],7.46
same,pIC50,P388; [3],7.46
same,pIC50,A549; [2],7.46
same,pIC50,DU145; [4],7.46
same,pIC50,MEL28; [5],6.76
"CCCCCCCCCCCCCCCC[C@@H](O)[C@H](C)N [drawing 37, (2S,3R)-2-Amino-3-nonadecanol]",pIC50,HT29; [1],7.48
same,pIC50,P388; [8],7.48
same,pIC50,A549; [2],7.48
same,pIC50,DU145; [9],7.48
same,pIC50,MEL28; [10],7.48
"CCCCCCCCCCCCCCCCC[C@@H](O)[C@H](C)N [drawing 38, (2S,3R)-2-Amino-3-eicosanol]",pIC50,HT29; [1],7.50
same,pIC50,P388; [8],7.50
same,pIC50,A549; [2],7.50
same,pIC50,DU145; [9],7.50
same,pIC50,MEL28; [10],6.50
"CCCCCCCCCCCCC[C@@H](O)[C@H](C)N [drawing 41, (2S,3R)-2-Amino-3-hexadecanol]",pIC50,HT29; [1],6.41
same,pIC50,P388; [8],6.41
same,pIC50,A549; [2],6.71
same,pIC50,DU145; [9],6.71
same,pIC50,MEL28; [10],6.43
"CCCCCCCCCCCCC[C@@H](O)[C@H](C)N [drawing 42, (2S,3R)-2-Amin-3-hexadecanol hydrochloride]",pIC50,HT29; [11],8.47
same,pIC50,A549; [12],8.47
"CCCCCCCCCCCCCC[C@@H](O)[C@H](C)N [drawing 44, (2S,3R)-2-Amino-3-heptadecanol]",pIC50,HT29; [6],7.43
same,pIC50,P388; [8],7.43
same,pIC50,A549; [7],7.43
same,pIC50,DU145; [9],7.43
same,pIC50,MEL28; [10],7.43
"CCCCCCCCCCCCCC[C@@H](O)[C@H](C)N [drawing 45, (2S,3R)-2-Amino-3-heptadecanol hydrochloride]",pIC50,HT29; [11],7.49
same,pIC50,A549; [12],7.49
"CCCCCCCCCCCCCCC[C@@H](O)[C@H](C)N [drawing 46, Bis-((2S,3R)-2-ammonium-3-octadecanol) L-tartrate]",pIC50,HT29; [6],7.56
same,pIC50,P388; [8],7.56
same,pIC50,A549; [7],7.56
same,pIC50,DU145; [9],7.56
same,pIC50,MEL28; [5],7.56
"CCCCCCCCCCCCCCC[C@@H](O)[C@H](C)N [drawing 47, (2S,3R)-2-Amino-3-octadecanol hydrochloride]",pIC50,HT29; [11],7.81
same,pIC50,"P388; P388, methodology after Berjeron et al, NA=not active, hydrochloride, read-out: Cytotoxicity IC50 P388",7.51
same,pIC50,A549; [12],7.51
same,pIC50,"DU145; DU145, methodology after Berjeron et al, NA=not active, hydrochloride, read-out: Cytotoxicity IC50 DU145",7.51
same,pIC50,"MEL28; MEL28, methodology after Berjeron et al, NA=not active, hydrochloride, read-out: Cytotoxicity IC50 MEL28",6.51
"CCCCCCCCCCCCCCCC[C@@H](O)[C@H](C)N [drawing 49, (2S,3R)-2-Amino-3-nonadecanol hydrochloride]",pIC50,HT29; [6],7.53
same,pIC50,A549; [7],7.53
"CCCCCCCCCCCCCCCCC[C@@H](O)[C@H](C)N [drawing 51, (2S,3R)-2-Amino-3-eicosanol hydrochloride]",pIC50,HT29; [11],7.84
same,pIC50,A549; [12],7.84
"CCCCCCCCCCCCCCCCCC[C@@H](O)[C@H](C)N [drawing 53, (2S,3R)-2-Amino-3-heneicosanol hydrochloride]",pIC50,HT29; [11],7.56
same,pIC50,A549; [12],7.56
"CCCCCCCCCCCCCC[C@@H](O)[C@@H](N)CC [drawing 56, (3S,4R)-3-Amino-4-octadecanol]",pIC50,HT29; [1],8.46
same,pIC50,A549; [2],8.46
"CCCCCCCCCCCCCC[C@@H](O)[C@@H](N)CC [drawing 57, (3s,4R)-3-Amino-4-octadecanol hydrocloride]",pIC50,HT29; [1],7.81
same,pIC50,A549; [2],7.81
"CCCCCCCCCCCCCCC[C@@H](O)[C@@H](N)CC [drawing 59, (3S,4R)-3-Amino-4-nonadecanol hydrochloride]",pIC50,HT29; [11],8.53
same,pIC50,A549; [12],8.53
"CCCCCCCCCCCCCCCC[C@@H](O)[C@@H](N)CC [drawing 60, (3S,4R)-3-Amino-4-eicosanol]",pIC50,HT29; [1],6.50
same,pIC50,A549; [2],6.50
"CCCCCCCCCCCCCCCC[C@@H](O)[C@@H](N)CC [drawing 61, (3S,4R)-3-Amino-4-eicosanol hydrochloride]",pIC50,HT29; [11],7.54
same,pIC50,A549; [12],7.54
"CCCCCCCCCCCCCCCCC[C@@H](O)[C@@H](N)CC [drawing 62, (3S,4R)-3-Amino-4-heneicosanol]",pIC50,HT29; [6],7.52
same,pIC50,A549; [7],7.52
"CCCCCCCCCCCCCCCCC[C@@H](O)[C@@H](N)CC [drawing 63, (3S,4R)-3-Amino-4-heneicosanol hydrochloride]",pIC50,HT29; [11],7.56
same,pIC50,A549; [12],7.56
"CCCCCCCCCCCCCCC[C@@H](O)[C@@H](N)CCC [drawing 64, (4S,5R)-4-Amino-5-eicosanol]",pIC50,HT29; [1],6.80
same,pIC50,A549; [2],6.80
"CCCCCCCCCCCCCCC[C@@H](O)[C@@H](N)CCC [drawing 65, (4S,5R)-4-Amino-5-eicosanol hydrochloride]",pIC50,HT29; [11],7.54
same,pIC50,A549; [12],7.54
"CCCCCCCCCCCCCCC[C@@H](O)[C@@H](N)Cc1ccc(O)cc1 [drawing 69, (2S,3R)-2-Amino-1-(4′-hydroxyphenyl)-3-octadecanol]",pIC50,HT29; [1],5.88
same,pIC50,A549; [2],5.88
"CCCCCCCCCCCCCCC[C@@H](O)[C@@H](N)Cc1ccc(O)cc1 [drawing 70, (2S,3R)-2-Amino-1-(4′-hydroxyphenyl)-3-octadecanol hydrochloride]",pIC50,HT29; [11],6.62
same,pIC50,A549; [12],6.62
"CCCCCCCCCCCCCCC[C@@H](O)[C@@H](N)CCCN [drawing 71, (4S,5R)-1,4-Diamino-5-eicosanol]",pIC50,HT29; [6],5.82
same,pIC50,A549; [7],5.82
"CCCCCCCCCCCCCCC[C@@H](O)[C@@H](N)CCCN [drawing 72, (4S,5R)-1,4-Diamino-5-eicosanol dihydrochloride]",pIC50,"HT29; HT29, methodology after Berjeron et al, NA=not active, dihydrochloride, read-out: Cytotoxicity IC50 HT29",5.91
same,pIC50,"A549; A549, methodology after Berjeron et al, NA=not active, dihydrochloride, read-out: Cytotoxicity IC50 A549",5.91
